Data reported in paper PMC12696353, “Structural insights into endogenous agonist selectivity of aminergic receptors from the octopamine β2 receptor” (PNAS Nexus, 2025).
Positions count from the first letter of the chain named. “Also recorded” adds a separate entry of the source. Where two headings read alike, the source gives them in different places.

Legend:
[1] = target: I. scapularis octβ2R (is-octβ2R) (Ixodes scapularis, UniProt A0ACM8E5E8); assay: cell-based; format: cell-based; conditions: for potency (EC50) relative to the other TDAs: order octopamine > tyramine > noradrenaline > dopamine
Description: (§1) The TGFα shedding assay was performed as previously described ([28]). […] The cells were transfected using lipofectamine 2000 with plasmids encoding alkaline phosphatase–tagged TGFα (AP-TGFα) (2.5 ng/mL), is-octβ2Rs (1 ng/mL), and Gαq/s (0.5 ng/mL). After 24 h, the cells were washed with phosphate-buffered saline and resuspended in Hank's balanced salt solution (HBSS) (supplemented with 5 mM HEPES [pH 7.4]). The cells (90 μL/well) were plated in a 96-well plate and incubated with 10 μL of HBSS solution containing various concentrations of compounds for 1 h at 37 °C. Following centrifugation (200 × g, 2 min), 80 μL of the supernatant was transferred to a separate 96-well plate. Subsequently, 80 µL of 2× para-nitrophenyl phosphate (pNPP) buffer (containing 10 mM pNPP in 40 mM Tris–HCl [pH 9.5], 40 mM NaCl, and 10 mM MgCl2) was added to both the supernatant and cell-containing plates. The optical density at 405 nm of both plates was measured before and after a 1 h incubation at room temperature using a microplate reader (SpectraMax iD3, Molecular Devices, San Jose, CA, United States). AP-TGFα release was calculated using the following formulas:
(§2) ΔOD405=OD450(1h)−OD405(0h)AP−TGFαinsupernatant(%)=(ΔOD405Sup/[ΔOD450Sup+ΔOD405Cell])×125AP−TGFαrelease(%)=AP−TGFαinsupernatantunderastimulatedcondition(%)−AP−TGFαinsupernatantunderavehicle−treatedcondition
(§3) where OD405 (0 h) and […] represent the OD405 before and after a 1 h incubation, respectively, and OD405Sup and OD405Cell represent the OD405 of supernatant and cell plates, respectively. For all pharmacological analyses, nonlinear regression curve fitting was performed with a 3-parameter sigmoid model (Hill coefficient = 1) using Prism 8 (GraphPad Software, La Jolla, CA, United States).

[2] = target: T1, is-octβ2R Y67^2.41S mutant (Ixodes scapularis, UniProt A0ACM8E5E8, Y67S); assay: TGFα shedding assay, amitraz-resistant mutant Y67^2.41S; format: cell-based; conditions: Table S4
T1 sequence (A0ACM8E5E8 1-384 Y67S): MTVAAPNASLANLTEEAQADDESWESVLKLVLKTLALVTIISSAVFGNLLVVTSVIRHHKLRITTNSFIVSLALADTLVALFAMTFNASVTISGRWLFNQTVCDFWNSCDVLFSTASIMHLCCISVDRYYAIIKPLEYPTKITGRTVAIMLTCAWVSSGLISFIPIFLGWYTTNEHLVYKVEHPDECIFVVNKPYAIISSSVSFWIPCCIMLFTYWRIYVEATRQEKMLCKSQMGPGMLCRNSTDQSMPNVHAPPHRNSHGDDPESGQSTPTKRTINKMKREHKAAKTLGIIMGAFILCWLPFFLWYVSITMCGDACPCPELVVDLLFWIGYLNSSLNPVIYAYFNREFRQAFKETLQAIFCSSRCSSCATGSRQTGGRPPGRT
Description: as §1, §2, §3

[3] = target: T2, is-octβ2R T60^1.41P mutant (Ixodes scapularis, UniProt A0ACM8E5E8); assay: TGFα shedding assay, amitraz-resistant mutant T60^1.41P; format: cell-based; conditions: Table S4
T2 sequence (A0ACM8E5E8 1-384 T39P): T1 sequence (A0ACM8E5E8 1-384 Y67S) with T39P, S67Y
Description: as §1, §2, §3

[4] = target: T3, is-octβ2R I62^1.43T mutant (Ixodes scapularis, UniProt A0ACM8E5E8, I41T); assay: TGFα shedding assay, amitraz-resistant mutant I62^1.43T; format: cell-based; conditions: Table S4
T3 sequence (A0ACM8E5E8 1-384 I41T): T1 sequence (A0ACM8E5E8 1-384 Y67S) with I41T, S67Y
Description: as §1, §2, §3

[5] = target: T4, is-octβ2R Y215^5.58H mutant (Ixodes scapularis, UniProt A0ACM8E5E8, Y215H); assay: TGFα shedding assay, amitraz-resistant mutant Y215^5.58H; format: cell-based
T4 sequence (A0ACM8E5E8 1-384 Y215H): T1 sequence (A0ACM8E5E8 1-384 Y67S) with S67Y, Y215H
Description: as §1, §2, §3

[6] = tested on: is-octβ2R Y215^5.58H mutant; assay: as above; format: cell-based, Ixodes scapularis; conditions: versus wild type
Description: as §1, §2, §3

[7] = target: T5, is-octβ2R I61^1.42F mutant (Ixodes scapularis, UniProt A0ACM8E5E8, I40F); assay: TGFα shedding assay, amitraz-resistant mutant I61^1.42F; format: cell-based; conditions: Table S4
T5 sequence (A0ACM8E5E8 1-384 I40F): T1 sequence (A0ACM8E5E8 1-384 Y67S) with I40F, S67Y
Description: as §1, §2, §3

[8] = target: T6, is-octβ2R N87^2.61S mutant (Ixodes scapularis, UniProt A0ACM8E5E8, N87S); assay: TGFα shedding assay, amitraz-resistant mutant N87^2.61S; format: cell-based; conditions: Table S4
T6 sequence (A0ACM8E5E8 1-384 N87S): T1 sequence (A0ACM8E5E8 1-384 Y67S) with S67Y, N87S
Description: as §1, §2, §3

[9] = Table S2, wild type, HEK293 cells, mean ± SEM, n = 3
[10] = HEK293, 1 h, Table S2, wild type, AP-TGFα release, HEK293 cells, mean ± SEM, n = 3
[11] = logEC50, Table S2, wild type, HEK293 cells, mean ± SEM, n = 3

With `NCCc1ccc(O)cc1` [Tyramine, tyramine] the EC50 [1] was 1580 nM, the Emax ([1]; HEK293, 1 h) was 25 ± 1.7% and the “potency (EC50) relative to the other TDAs” value ([1]; wild type) was “weaker potency”.
In the case of `Cc1ccc(NC=O)c(C)c1` [DMF, N-(2,4-dimethylphenyl)formamide], the logEC50 [1, 9] is reported as “no activity” and the agonistic activity ([1]; wild type) is reported as “no agonistic activity”.
For `NCCc1ccc(O)c(O)c1` [Dopamine, dopamine], the logEC50 [1, 9] was “signal observed only at 10-5 M” and the “potency (EC50) relative to the other TDAs” value ([1]; wild type) was “significantly weaker affinities; also recorded: lowest potency”.
Compound `CNC[C@H](O)c1ccc(O)c(O)c1` [Adrenaline, adrenaline] has an EC50 [1] of 3160 nM and an Emax ([1]; HEK293, 1 h) of 20 ± 2.1%.
`Cc1ccc(/N=C/N(C)/C=N/c2ccc(C)cc2C)c(C)c1` [Amitraz] showed an EC50 [2] of 63.1 nM, an EC50 [3] of 31.6 nM and an EC50 [4] of 15.8 nM. For the same compound, the EC50 [5] was 63.1 nM, the “reduction of maximal response (Emax) by the Y215^5.58H mutation” value [6] was ~50% and the Emax ([1]; 1 h, Table S4, WT, AP-TGFα release) was 17 ± 1%. It also gave an Emax [1, 10] of 26 ± 0.9%, an EC50 ([1]; LogEC50, Table S4, WT) of 31.6 nM and an EC50 [1, 11] of 126 nM. The EC50 [7] was 63.1 nM and the EC50 [8] was 50.1 nM.
With `Cc1ccc(N)c(C)c1` [2′,4′-dimethylaniline] the agonistic activity ([1]; wild type) was “no agonist activity”.
`NC[C@H](O)c1ccc(O)c(O)c1` [Noradrenaline, noradrenaline] was tested, and the Emax [1, 10] was 32 ± 13.1%, the EC50 [1, 11] was 10000 nM and the “potency (EC50) relative to the other TDAs” value ([1]; wild type) was “significantly weaker affinities”.
